From ChEMBL document CHEMBL1201862, “PubChem BioAssay data set” (2004)
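Tested at 5 concentrations; 48 h exposure; 96-well plates; endpoints linearly interpolated, else capped at highest concentration. GI50 is the concentration that inhibits growth by half.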 The source made the active and inactive calls. No stated cut-off is given here; in the data, active = GI50 up to about 1.1 µM and inactive = higher.

Legend:
Assay in all cases: NCI-60 cell line screen, 48 h
[1] = system: SK-OV-3
[2] = system: SF-268
[3] = system: M14
[4] = system: UACC-62
[5] = system: HT-29
[6] = system: DMS-114
[7] = system: OVCAR-8
[8] = system: UACC-257
[9] = system: M19-MEL
[10] = system: OVCAR-5
[11] = system: HOP-62
[12] = system: A549
[13] = system: RXF 393
[14] = system: A498
[15] = system: NCI-H522
[16] = system: CCRF-CEM
[17] = system: NCI-H460
[18] = system: IGROV-1
[19] = system: TK-10
[20] = system: MOLT-4
[21] = system: SK-MEL-28
[22] = system: EKVX
[23] = system: HCT-116
[24] = system: DMS-273
[25] = system: KM12
[26] = system: U-251
[27] = system: HOP-92
[28] = system: NCI-H23
[29] = system: SR
[30] = system: SNB-78
[31] = system: SNB-19
[32] = system: UO-31
[33] = system: NCI-H226
[34] = system: HL-60
[35] = system: HCT-15
[36] = system: BT-549
[37] = system: K562
[38] = system: 786-0
[39] = system: SW-620
[40] = system: COLO 205
[41] = system: T47D
[42] = system: OVCAR-3
[43] = system: LOX IMVI
[44] = system: MDA-N
[45] = system: SF-539
[46] = system: NCI/ADR-RES
[47] = system: PC-3
[48] = system: RPMI-8226
[49] = system: SN12C
[50] = system: Hs-578T
[51] = system: SK-MEL-2
[52] = system: CAKI-1
[53] = system: Malme-3M
[54] = system: DU-145
[55] = system: MDA-MB-435
[56] = system: MDA-MB-231
[57] = system: HCC 2998
[58] = system: SNB-75
[59] = system: SK-MEL-5
[60] = system: ACHN
[61] = system: SF-295
[62] = system: OVCAR-4
[63] = system: MCF7

With COc1ccc(OC)c2c(=O)c3ccccc3[nH]c12 the GI50 [1] was > 100 µM (inactive), the GI50 [2] was 54.3 µM (inactive) and the GI50 [3] was 74.8 µM (inactive). For the same compound, the GI50 [4] was 43.6 µM (inactive), the GI50 [5] was 45.6 µM (inactive) and the GI50 [6] was 66.8 µM (inactive). The GI50 [7] was 19.3 µM (inactive), the GI50 [8] was 4.44 µM (inactive) and the GI50 [9] was > 100 µM (inactive). The GI50 [10] was 70.1 µM (inactive), the GI50 [11] was > 100 µM (inactive) and the GI50 [12] was 47 µM (inactive). The GI50 [13] was 41.2 µM (inactive), the GI50 [14] was 69.3 µM (inactive) and the GI50 [15] was 82.8 µM (inactive). For the same compound, the GI50 [16] was > 100 µM (inactive), the GI50 [17] was 38.9 µM (inactive) and the GI50 [18] was > 100 µM (inactive). The GI50 [19] was > 100 µM (inactive), the GI50 [20] was 47.9 µM (inactive) and the GI50 [21] was > 100 µM (inactive). For the same compound, the GI50 [22] was > 100 µM (inactive), the GI50 [23] was 44.2 µM (inactive) and the GI50 [24] was 62.5 µM (inactive). For the same compound, the GI50 [25] was 57.8 µM (inactive), the GI50 [26] was 54.1 µM (inactive) and the GI50 [27] was 37.1 µM (inactive). For the same compound, the GI50 [28] was 41.7 µM (inactive), the GI50 [29] was 41.1 µM (inactive) and the GI50 [30] was 49.7 µM (inactive). The GI50 [31] was 96.6 µM (inactive), the GI50 [32] was 30.9 µM (inactive) and the GI50 [33] was 66.5 µM (inactive). The GI50 [34] was 48.3 µM (inactive).

In the case of O=[N+]([O-])c1ccc(NC(=S)Nc2ccccn2)cc1, the GI50 [35] is reported as 18.8 µM, the GI50 [36] is reported as > 92.3 µM (inactive) and the GI50 [1] is reported as 47 µM (inactive). For the same compound, the GI50 [2] was 26.9 µM (inactive), the GI50 [3] was 46.8 µM (inactive) and the GI50 [4] was 19.9 µM (inactive). For the same compound, the GI50 [37] was > 69.2 µM (inactive), the GI50 [38] was 16.8 µM (inactive) and the GI50 [39] was 40.3 µM (inactive). The GI50 [5] was 31.7 µM (inactive), the GI50 [40] was 18.5 µM (inactive) and the GI50 [7] was 31.5 µM (inactive). The GI50 [41] was 35.7 µM (inactive), the GI50 [8] was 64.4 µM (inactive) and the GI50 [10] was 27.7 µM (inactive). For the same compound, the GI50 [11] was 17.3 µM (inactive), the GI50 [42] was 18.6 µM (inactive) and the GI50 [43] was 16.4 µM (inactive). For the same compound, the GI50 [12] was 19.1 µM (inactive), the GI50 [44] was 91.8 µM (inactive) and the GI50 [45] was 8.63 µM (inactive). The GI50 [46] was 33.4 µM (inactive), the GI50 [13] was 4.68 µM (inactive) and the GI50 [47] was 40.6 µM (inactive). The GI50 [14] was 12.8 µM (inactive), the GI50 [15] was 31.8 µM (inactive) and the GI50 [48] was > 100 µM (inactive). For the same compound, the GI50 [49] was 37.2 µM (inactive), the GI50 [16] was > 64.4 µM (inactive) and the GI50 [17] was 23.3 µM (inactive). The GI50 [18] was 11.9 µM (inactive), the GI50 [19] was 31.3 µM (inactive) and the GI50 [50] was 13.8 µM (inactive). For the same compound, the GI50 [51] was > 53.1 µM (inactive), the GI50 [52] was 5.11 µM (inactive) and the GI50 [20] was 16.9 µM (inactive). The GI50 [53] was 72.9 µM (inactive), the GI50 [54] was 7.5 µM (inactive) and the GI50 [55] was 20.8 µM (inactive). For the same compound, the GI50 [56] was 40.3 µM (inactive), the GI50 [21] was > 95.3 µM (inactive) and the GI50 [22] was 8.45 µM (inactive). For the same compound, the GI50 [23] was 11.9 µM (inactive), the GI50 [25] was 10.3 µM (inactive) and the GI50 [57] was > 100 µM (inactive). For the same compound, the GI50 [26] was 24.3 µM (inactive), the GI50 [58] was 18 µM (inactive) and the GI50 [27] was 72.4 µM (inactive). For the same compound, the GI50 [28] was 63.4 µM (inactive), the GI50 [59] was 43.3 µM (inactive) and the GI50 [29] was 5.28 µM (inactive). For the same compound, the GI50 [60] was 34.1 µM (inactive), the GI50 [61] was 27.4 µM (inactive) and the GI50 [31] was 57.3 µM (inactive). For the same compound, the GI50 [62] was 37.5 µM (inactive), the GI50 [32] was 26.2 µM (inactive) and the GI50 [33] was 22.7 µM (inactive). The GI50 [63] was 12.4 µM (inactive) and the GI50 [34] was 14 µM (inactive).
